The values below are quoted from earlier work in patent US20050255458A1, “Drug discovery assays based on the biology of chronic disease” (priority 2002, published 2005).

“And” between values parts separate entries of the source, which are not always exact repeats. Equal entries are not always repeated. Where two headings read alike, the source gives them in different places.

One data set deals with PTP1B (Homo sapiens, UniProt P18031). The settings on record: Huyer 1997; cited from earlier work.
Chain of PTP1B (P18031 whole entry, species assumed): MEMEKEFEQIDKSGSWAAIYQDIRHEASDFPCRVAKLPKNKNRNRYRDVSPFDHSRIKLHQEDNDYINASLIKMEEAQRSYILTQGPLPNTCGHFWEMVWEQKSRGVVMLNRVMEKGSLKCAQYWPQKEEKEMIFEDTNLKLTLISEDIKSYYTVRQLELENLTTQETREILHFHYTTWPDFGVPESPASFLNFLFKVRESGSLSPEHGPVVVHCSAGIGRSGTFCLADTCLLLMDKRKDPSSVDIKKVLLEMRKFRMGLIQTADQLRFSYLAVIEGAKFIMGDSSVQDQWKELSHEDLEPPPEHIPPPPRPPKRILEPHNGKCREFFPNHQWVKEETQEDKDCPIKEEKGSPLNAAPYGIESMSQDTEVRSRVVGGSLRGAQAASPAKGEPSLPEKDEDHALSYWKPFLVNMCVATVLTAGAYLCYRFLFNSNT
In the next data set the test system is VCAM-1. The settings on record: cited from earlier work.
In another data set the test system is monocytes on VCAM-1. The note with it: cited from earlier work.
For data set [1] the following is noted: 0.3-0.5 mmol/kg/day, from day 56; cited from earlier work.
The next data set concerns the target AR (Homo sapiens, UniProt P10275). The settings on record: cited from earlier work.
The test system of data set [2] is metallothionein (MT). The settings on record: non-transformed hepatocytes; cited from earlier work.
For data set [3], the system named is metallothionein (MT). The settings on record: cited from earlier work.
Data set [4] relates to metallothionein (MT). The note with it: cited from earlier work. The source holds these as a separate data set.
The test system of data set [5] is LS 174T colon cancer cells. The note with it: after the fourth day of treatment; cited from earlier work.
In the next data set the test system is ERK1/2. The settings on record: cited studies, various cells; cited from earlier work.
The next data set concerns PFK-2/FBPase-2. The settings on record: diabetic animals, up to 15 days; cited from earlier work.
For data set [6] the following is noted: obese Zucker rats; cited from earlier work.
Data set [7] has as its system ERK. The settings on record: cited from earlier work.
The test system of data set [8] is obese (fa/fa) Zucker rats. The note with it: chronic ICV microinjection; cited from earlier work.
For the next data set, the system named is anagen hair follicles. The note with it: cited from earlier work.
Data set [9] concerns genetically obese ob/ob or db/db mice. The note with it: low dose injection, for several hours; cited from earlier work.
Data set [10] deals with T1, long form leptin receptor (Rattus norvegicus, UniProt Q62959).
T1 construct: expressed in transfected cells; host or cells: Chinese hamster ovary (CHO) cells
T1 sequence (Q62959 22-1162): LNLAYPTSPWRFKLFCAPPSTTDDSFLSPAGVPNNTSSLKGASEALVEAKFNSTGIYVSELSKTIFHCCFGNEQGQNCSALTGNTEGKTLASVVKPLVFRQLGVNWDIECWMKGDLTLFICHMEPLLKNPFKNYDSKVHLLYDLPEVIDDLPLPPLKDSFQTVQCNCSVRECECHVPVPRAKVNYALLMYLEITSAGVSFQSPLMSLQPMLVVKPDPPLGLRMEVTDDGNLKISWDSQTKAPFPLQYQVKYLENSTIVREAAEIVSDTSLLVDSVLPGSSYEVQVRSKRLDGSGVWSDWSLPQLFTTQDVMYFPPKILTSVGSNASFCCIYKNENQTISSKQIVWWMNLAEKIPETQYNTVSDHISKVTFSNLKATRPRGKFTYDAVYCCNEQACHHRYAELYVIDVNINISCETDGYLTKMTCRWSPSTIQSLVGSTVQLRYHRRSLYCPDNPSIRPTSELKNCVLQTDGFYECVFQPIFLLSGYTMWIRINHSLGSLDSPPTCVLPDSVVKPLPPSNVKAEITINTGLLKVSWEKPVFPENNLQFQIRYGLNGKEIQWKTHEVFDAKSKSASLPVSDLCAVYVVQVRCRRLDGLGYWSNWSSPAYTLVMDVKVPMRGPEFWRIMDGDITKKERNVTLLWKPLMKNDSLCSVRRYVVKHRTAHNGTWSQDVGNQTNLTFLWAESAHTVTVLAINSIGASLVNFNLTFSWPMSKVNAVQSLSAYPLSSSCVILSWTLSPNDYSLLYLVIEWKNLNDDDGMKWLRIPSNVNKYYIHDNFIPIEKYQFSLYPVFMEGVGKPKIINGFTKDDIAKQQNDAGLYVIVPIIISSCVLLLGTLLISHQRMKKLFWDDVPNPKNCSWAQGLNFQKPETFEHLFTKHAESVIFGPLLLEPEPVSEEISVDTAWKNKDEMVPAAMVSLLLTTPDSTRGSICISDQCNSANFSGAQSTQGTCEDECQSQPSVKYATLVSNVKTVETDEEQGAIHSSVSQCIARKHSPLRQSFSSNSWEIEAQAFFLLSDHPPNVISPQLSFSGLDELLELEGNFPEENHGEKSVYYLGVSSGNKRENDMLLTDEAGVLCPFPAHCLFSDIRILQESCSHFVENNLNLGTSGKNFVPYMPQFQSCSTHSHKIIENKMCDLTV
The settings on record: CHO cells; cited from earlier work.

In data set [11] the test system is ML-1 human myeloblastic leukemic cells. The settings on record: cited from earlier work; for increase in ERK activity: 0.3 ng/ml.
Data set [12] deals with AR gene. The settings on record: cited from earlier work.
The subject of data set [13] is third intron enhancer of the TNFα gene. The settings on record: PBMC stimulated with TPA; cited from earlier work.
Data set [14] relates to ERK. The note with it: LNCaP; cited from earlier work.
The subject of the next data set is ERK1 and ERK2. The settings on record: 20 μm, 15 min; cited from earlier work.
The subject of a further data set is TF. The note with it: cited from earlier work.
The test system of data set [15] is AR gene. The settings on record: 50 μg/ml, 4 hours, 21-day-old rats; cited from earlier work.

Chain of AR (P10275 whole entry): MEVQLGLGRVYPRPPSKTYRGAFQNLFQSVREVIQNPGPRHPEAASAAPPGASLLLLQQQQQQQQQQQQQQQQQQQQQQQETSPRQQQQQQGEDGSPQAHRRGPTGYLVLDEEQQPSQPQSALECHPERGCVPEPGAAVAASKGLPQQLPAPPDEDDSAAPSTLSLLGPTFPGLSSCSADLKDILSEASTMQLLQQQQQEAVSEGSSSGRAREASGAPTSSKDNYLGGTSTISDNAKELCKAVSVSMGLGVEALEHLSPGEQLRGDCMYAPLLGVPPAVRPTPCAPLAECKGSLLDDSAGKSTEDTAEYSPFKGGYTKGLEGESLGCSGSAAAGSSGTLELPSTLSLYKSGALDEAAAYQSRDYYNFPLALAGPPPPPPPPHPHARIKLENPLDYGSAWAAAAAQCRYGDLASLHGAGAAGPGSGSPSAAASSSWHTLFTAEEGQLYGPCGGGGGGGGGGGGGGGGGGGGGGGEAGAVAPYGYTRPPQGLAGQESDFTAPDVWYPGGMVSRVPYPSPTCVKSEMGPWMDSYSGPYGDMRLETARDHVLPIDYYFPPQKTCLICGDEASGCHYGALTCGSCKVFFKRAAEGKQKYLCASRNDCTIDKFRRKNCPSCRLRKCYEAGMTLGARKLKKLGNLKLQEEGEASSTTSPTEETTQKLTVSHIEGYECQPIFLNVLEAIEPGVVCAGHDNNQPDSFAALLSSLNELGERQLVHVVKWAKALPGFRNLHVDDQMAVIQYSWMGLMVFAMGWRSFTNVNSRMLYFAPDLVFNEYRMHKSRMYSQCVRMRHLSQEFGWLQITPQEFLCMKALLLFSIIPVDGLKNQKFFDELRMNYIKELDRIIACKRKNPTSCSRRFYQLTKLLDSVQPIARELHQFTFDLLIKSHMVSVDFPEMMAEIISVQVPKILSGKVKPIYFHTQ

As to pervanadate, on PTP1B, the PTP1B activity result is reported as “inhibition”.

Take MCP-1: a chemokine: the “average percent of monocyte remaining bound” value is listed as 51% with VCAM-1 (8.5 dyn/cm^2, 0-6.99 minutes of stimulation, 1 ng/ml); 67% in the data set with VCAM-1 (8.5 dyn/cm^2, 7.0-13.99 minutes); 31% in the data set with VCAM-1 (8.5 dyn/cm^2, 14.0-30.0 minutes); 36% in the data set with VCAM-1 (36 dyn/cm^2, 0-6.99 minutes); 16% in the data set on VCAM-1 (36 dyn/cm^2, 14.0-30.0 minutes). Also, the Average velocity in the data set with monocytes on VCAM-1 is on record as 2.43 ± 1.36 μm/min.

Regarding `Cc1occc(=O)c1[O-].Cc1occc(=O)c1[O-].[O]=[V+2]` [bis(maltolato)oxovanadium], the weight gain entry in [1] was “decreased weight gain”.

Regarding “[^3H]methyltrienolone [[3H]methyltrienolone (R1881)]”, the Bmax at AR was 30.1 ± 4.3 fmol/mg protein and 26.8 ± 3.0 fmol/mg protein and 18.7 ± 4.4 fmol/mg protein.

Take `CCCC(=O)[O-].[Na+]` [sodium butyrate]: the “increase in MT mRNA” value is listed as 2-4 fold in the data set with metallothionein (MT) [2] and 20 fold with metallothionein (MT) [4] (OC15 carcinoma cells). In the data set with metallothionein (MT) [3], the MT synthesis entry is on record as “dose-dependent increase”. Moreover, the “MT mRNA levels” value in the data set with metallothionein (MT) [4] (OC15 EC, OC15 END cells) is on record as “increased MT mRNA levels”. For the same compound, the “growth of LS 174T cells” value in data set [5] is listed as “significant growth inhibition”. The “phosphorylation of ERK1/2” value in the data set on ERK1/2 is reported as “phosphorylation of ERK1/2”.

`[O]=[V]([O-])([O-])[O-]` [vanadate, Vanadate (VO4^−3)]: the “liver PFK-2/FBPase-2 mRNA content” value in the data set on PFK-2/FBPase-2 is “progressive increase”. Moreover, in data set [6], the “decrease in plasma glucose” value is recorded as 36% and the “decrease in plasma insulin” value was 80%. Also, the ERK activation result in the data set on ERK [7] (as general PTP inhibitors) is “activate ERK”.

“IL-1β: human recombinant IL-1β, an ERK agent”: in data set [8], the “decrease in nighttime food intake” value is 66.1%. In addition, the “growth of isolated scalp hair” value in the data set on anagen hair follicles (Xiong 1997) is “growth inhibition”. In addition, in data set [9], the glucose blood levels result is “normalization of glucose blood levels”.

For “leptin: an ERK agent that binds the long form leptin receptor”, the “tyrosine phosphorylation of STAT3 and ERK” value in [10] is “increased tyrosine phosphorylation of STAT3 and ERK”.

On to `CCCCCCCCCCCCCC(=O)O[C@@H]1[C@@H](C)[C@@]2(O)[C@@H](C=C(CO)C[C@]3(O)C(=O)C(C)=C[C@@H]23)[C@@H]2C(C)(C)[C@]12OC(C)=O` [TPA, phorbol 12-myristate 13-acetate], for which the hair growth result in the data set with anagen hair follicles (6 days culture, A 23187 2 μM, TPA 1 μM, IL-1 100 ng per ml (Hoffmann 1997)) is on record as “significantly inhibited hair growth”. Also, in the data set on anagen hair follicles (suspension culture (Harmon 1995), read-out: inhibition of total cumulative hair follicle growth), the IC50 is 1 nM. For the same compound, the “increase in ERK activity” value in [11] (1 h) is 6 fold; in [11] (3 h), 4 fold. In data set [11] (3-day 0.3 ng/ml, then 3 days without TPA), the ML-1 proliferation entry is “cease proliferation”. The “phosphorylation of ERK1/2” value in the data set with ERK1/2 is “phosphorylation of ERK1/2”. In the data set with AR gene [12] (Kumar 1998), the “mouse AR mRNA” value was “increase in mouse AR mRNA”. Moreover, the “Effect on [mRNAAR]” value in the data set on AR gene [12] (Sertoli, 19 days old rats) was “↓[mRNAAR]”. Also, the “DNase-I hypersensitivity of the third intron enhancer of the TNFα gene” value in data set [13] was “enhanced”. In the data set on ERK [7] (Jurkat cells), the ERK phosphorylation entry is recorded as “increased ERK phosphorylation”. In addition, in the data set on ERK [14], the “Effect on [ERK^phos]” value is “↑[ERK^phos]”.

As to `CCCCCC1OC1CC=CCC=CCC=CCCCC(=O)O` (centres unmarked) [14,15-EET, 14,15-epoxyeicosatrienoic acid], in the data set on ERK1 and ERK2, the “ERK1 and ERK2 phosphorylation” value is “stimulated ERK1 and ERK2 phosphorylation”.

With `C[C@@H]1C[C@@H]([C@H](O)CC2CC(=O)NC(=O)C2)C(=O)[C@@H](C)C1` [cycloheximide], in the data set with TF, the “AGE-alb induced TF mRNA” value is “completely suppressed”. Also, in the data set on AR gene [15], the “increase in AR mRNA” value was 1.7±0.4 fold. Moreover, the ERK phosphorylation result in the data set on ERK [7] (oocytes) is on record as “decreased ERK phosphorylation”.
